The results in this text go back to patent US20160287589A1, “SUBSTITUTED-IMIDAZOPYRIDAZINES” (BAYER PHARMA AKTIENGESELLSCHAFT, priority 2013, published 2016).

The term pIC50 denotes the IC50 on a negative log10 scale, so that one unit is a factor of ten. The low end stands for a large IC50, the high end for a small IC50.

For experiment [1], the target named is T1, MKNK1 (Homo sapiens, UniProt Q9BUB5, T385D).
T1 construct: GST (N); purchased Carna Biosciences 02-145; host or cells: insect cells (baculovirus expression system)
T1 sequence (Q9BUB5 1-424 isoform Q9BUB5-2 T344D): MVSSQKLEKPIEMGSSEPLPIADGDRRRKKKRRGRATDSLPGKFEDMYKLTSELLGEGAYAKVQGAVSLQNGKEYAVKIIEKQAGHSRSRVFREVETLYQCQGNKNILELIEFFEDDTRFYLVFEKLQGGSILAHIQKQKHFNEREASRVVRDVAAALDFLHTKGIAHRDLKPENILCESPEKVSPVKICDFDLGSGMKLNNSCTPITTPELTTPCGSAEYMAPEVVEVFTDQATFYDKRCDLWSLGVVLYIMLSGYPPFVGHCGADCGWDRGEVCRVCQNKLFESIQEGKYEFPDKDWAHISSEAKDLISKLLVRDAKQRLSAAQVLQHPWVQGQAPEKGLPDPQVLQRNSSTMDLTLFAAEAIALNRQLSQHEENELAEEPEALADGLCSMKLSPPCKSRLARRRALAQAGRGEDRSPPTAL
The experiment is described as follows: MKNK1 kinase high ATP assay (TR-FRET-based). In kind it is biochemical. The conditions noted are these: 2 mM ATP, 15 min preincubation. In a few lines:
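TR-FRET read-out (anti-phospho-S6 Ser236 antibody, Eu/XL665) of biotin-peptide phosphorylation (0.06 μM) at high ATP (2 mM final). Enzyme was GST-MKNK1 full length, T344D, pre-bound to compound for 15 min before a 30 min reaction at 22 °C, pH 7.5. Inhibition scaled between no-inhibitor (0%) and no-enzyme (100%) wells.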
Background: In TR-FRET formats the signal depends on donor and acceptor labels being close together.

The target of experiment [2] is T1, MKNK1. Kind of experiment: MKNK1 kinase assay (MKNK1 TR-FRET assay). In kind it is biochemical. The conditions noted are these: 10 μM ATP, 15 min preincubation.

SMILES strings stand for the structures. pIC50: −log10 of the molar value.

`O=C(NCCOc1ccc2ncc(-c3cc4ccccc4o3)n2n1)c1cccs1` [Example I-64, N-(2-{[3-(1-Benzofuran-2-yl)imidazo[1,2-b]-pyridazin-6-yl]oxy}ethyl)thiophene-2-carboxamide]: the pIC50 was 7.98 on MKNK1 [1] (Table 2a) and 8.33 against MKNK1 [2] (Table 1a).
With `O=C(NCCOc1ccc2ncc(-c3cc4ccccc4o3)n2n1)c1ccccc1Cl` [Example I-65, N-(2-{[3-(1-Benzofuran-2-yl)imidazo[1,2-b]-pyridazin-6-yl]oxy}ethyl)-2-chlorobenzamide], the pIC50 against MKNK1 [1] (Table 2a) was 7.93; against MKNK1 [2] (Table 1a), 8.28.
As for `O=C(NCCOc1ccc2ncc(-c3cc4ccccc4o3)n2n1)C1CCOCC1` [Example I-66, N-(2-{[3-(1-Benzofuran-2-yl)imidazo[1,2-b]-pyridazin-6-yl]oxy}ethyl)tetrahydro-2H-pyran-4-carboxamide], the pIC50 against MKNK1 [1] (Table 2a) was 7.83; against MKNK1 [2] (Table 1a), 8.14.
On the same counts, the results for `O=C(CO)NCCOc1ccc2ncc(-c3cc4ccccc4o3)n2n1` [Example I-67, N-(2-{[3-(1-Benzofuran-2-yl)imidazo[1,2-b]-pyridazin-6-yl]oxy}ethyl)-2-hydroxyacetamide] are 7.69 and 8.18.
Regarding `O=C(NCCOc1ccc2ncc(-c3cc4ccccc4o3)n2n1)C1CCC1` [Example I-68, N-(2-{[3-(1-Benzofuran-2-yl)imidazo[1,2-b]-pyridazin-6-yl]oxy}ethyl)cyclobutane-carboxamide], the pIC50 on MKNK1 [1] (Table 2a) was 7.69; against MKNK1 [2] (Table 1a), 8.11.
On the same counts, the results for `Cc1cccc(C(=O)NCCOc2ccc3ncc(-c4cc5ccccc5o4)n3n2)c1` [Example I-69, N-(2-{[3-(1-Benzofuran-2-yl)imidazo[1,2-b]-pyridazin-6-yl]oxy}ethyl)-3-methylbenzamide] are 7.43 and 7.86.
As to `O=C(NCCOc1ccc2ncc(-c3cc4ccccc4o3)n2n1)c1ccccn1` [Example I-70, N-(2-{[3-(1-Benzofuran-2-yl)imidazo[1,2-b]-pyridazin-6-yl]oxy}ethyl)pyridine-2-carboxamide], the pIC50 on MKNK1 [1] (Table 2a) was 7.34; on MKNK1 [2] (Table 1a) it was 7.82.
Consider `Cc1ccccc1C(=O)NCCOc1ccc2ncc(-c3cc4ccccc4o3)n2n1` [Example I-71, N-(2-{[3-(1-Benzofuran-2-yl)imidazo[1,2-b]-pyridazin-6-yl]oxy}ethyl)-2-methylbenzamide], for which the figures for the pIC50 against MKNK1 [1] (Table 2a) and against MKNK1 [2] (Table 1a) were 7.84 and 8.34, respectively.
Consider `CC(C)CC(=O)NCCOc1ccc2ncc(-c3cc4ccccc4o3)n2n1` [Example I-72, N-(2-{[3-(1-Benzofuran-2-yl)imidazo[1,2-b]-pyridazin-6-yl]oxy}ethyl)-3-methylbutanamide], for which the pIC50 is 7.83 against MKNK1 [1] (Table 2a) and 8.32 against MKNK1 [2] (Table 1a).
Turning to `CCC(C)C(=O)NCCOc1ccc2ncc(-c3cc4ccccc4o3)n2n1` (stereo not shown) [Example I-73, N-(2-{[3-(1-Benzofuran-2-yl)imidazo[1,2-b]-pyridazin-6-yl]oxy}ethyl)-2-methylbutanamide], the pIC50 is 7.78 against MKNK1 [1] (Table 2a) and 8.25 at MKNK1 [2] (Table 1a).
In the case of `CCCCC(=O)NCCOc1ccc2ncc(-c3cc4ccccc4o3)n2n1` [Example I-74, N-(2-{[3-(1-Benzofuran-2-yl)imidazo[1,2-b]-pyridazin-6-yl]oxy}ethyl)pentanamide], the pIC50 is 7.78 at MKNK1 [1] (Table 2a) and 8.27 on MKNK1 [2] (Table 1a).
Consider `O=C(Cc1ccccc1)NCCOc1ccc2ncc(-c3cc4ccccc4o3)n2n1` [Example I-75, N-(2-{[3-(1-Benzofuran-2-yl)imidazo[1,2-b]-pyridazin-6-yl]oxy}ethyl)-2-phenylacetamide], for which the negative-log IC50 (pIC50) at MKNK1 [1] (Table 2a) is 7.75; at MKNK1 [2] (Table 1a), 8.22.
In the case of `O=C(CC1CC1)NCCOc1ccc2ncc(-c3cc4ccccc4o3)n2n1` [Example I-76, N-(2-{[3-(1-Benzofuran-2-yl)imidazo[1,2-b]-pyridazin-6-yl]oxy}ethyl)-2-cyclopropylacetamide], the negative logarithm of the IC50 (pIC50) on MKNK1 [1] (Table 2a) is 7.68; on MKNK1 [2] (Table 1a) it was 8.14.
Regarding `O=C(NCCOc1ccc2ncc(-c3cc4ccccc4o3)n2n1)c1ccco1` [Example I-77, N-(2-{[3-(1-Benzofuran-2-yl)imidazo[1,2-b]-pyridazin-6-yl]oxy}ethyl)furan-2-carboxamide], the values for the pIC50 on MKNK1 [1] (Table 2a) and against MKNK1 [2] (Table 1a) were 7.65 and 8.10, respectively.
Turning to `O=C(NCCOc1ccc2ncc(-c3cc4ccccc4o3)n2n1)C1CCCO1` (stereo not shown) [Example I-78, N-(2-{[3-(1-Benzofuran-2-yl)imidazo[1,2-b]-pyridazin-6-yl]oxy}ethyl)tetrahydrofuran-2-carboxamide], the results for the pIC50 against MKNK1 [1] (Table 2a) and against MKNK1 [2] (Table 1a) were 7.64 and 8.17, respectively.
Take `Cn1ccc(C(=O)NCCOc2ccc3ncc(-c4cc5ccccc5o4)n3n2)n1` [Example I-79, N-(2-{[3-(1-Benzofuran-2-yl)imidazo[1,2-b]-pyridazin-6-yl]oxy}ethyl)-1-methyl-1H-pyrazole-3-carboxamide]: the pIC50 against MKNK1 [1] (Table 2a) was 7.59; against MKNK1 [2] (Table 1a) it was 8.00.
For `CC(=O)NC[C@@H](C)Oc1ccc2ncc(-c3cc4ccccc4o3)n2n1` [Example I-80, N-[(2R)-2-{[3-(1-Benzofuran-2-yl)imidazo[1,2-b]pyridazin-6-yl]oxy}-propyl]acetamide], the negative logarithm of the IC50 (pIC50) against MKNK1 [1] (Table 2a) was 7.32; against MKNK1 [2] (Table 1a) it was 7.61.
Consider `c1cc(N2CCOCC2)c2cc(-c3cnc4ccc(OC[C@H]5CNCCO5)nn34)oc2c1` [II-1, 3-[4-(Morpholin-4-yl)-1-benzofuran-2-yl]-6-[(2R)-morpholin-2-ylmethoxy]-imidazo[1,2-b]pyridazine], for which the pIC50 on MKNK1 [1] (Table 2b) is 7.70; at MKNK1 [2] (Table 1b), 8.07.
With `C[C@H](N)COc1ccc2ncc(-c3cc4c(N5CCOCC5)cccc4o3)n2n1` [II-2, (2S)-1-({3-[4-(Morpholin-4-yl)-1-benzofuran-2-yl]imidazo[1,2-b]pyridazin-6-yl}oxy)propan-2-amine], the pIC50 at MKNK1 [1] (Table 2b) is 7.44; at MKNK1 [2] (Table 1b), 7.80.
Turning to `CC(C)(C)OC(=O)N[C@H]1C[C@H](Oc2ccc3ncc(-c4cc5c(N6CCOCC6)cccc5o4)n3n2)C1` [II-3, tert-Butyl [trans-3-({3-[4-(morpholin-4-yl)-1-benzofuran-2-yl]imidazo[1,2-b]-pyridazin-6-yl}oxy)cyclobutyl]carbamate], the pIC50 was 6.71 at MKNK1 [1] (Table 2b) and 6.96 at MKNK1 [2] (Table 1b).
On the same counts, the results for `N[C@H]1C[C@H](Oc2ccc3ncc(-c4cc5c(N6CCOCC6)cccc5o4)n3n2)C1` [II-4, trans-3-({3-[4-(Morpholin-4-yl)-1-benzofuran-2-yl]imidazo[1,2-b]pyridazin-6-yl}oxy)cyclobutanamine] are 7.55 and 7.74.
Regarding `O=C1CC[C@H](COc2ccc3ncc(-c4cc5c(N6CCOCC6)cccc5o4)n3n2)N1` [II-5, (5R)-5-[({3-[4-(Morpholin-4-yl)-1-benzofuran-2-yl]imidazo[1,2-b]pyridazin-6-yl}oxy)methyl]pyrrolidin-2-one], the pIC50 on MKNK1 [1] (Table 2b) is 7.57; against MKNK1 [2] (Table 1b) it was 7.82.
On to `COC[C@H]1CCCN1c1cccc2oc(-c3cnc4ccc(OCCCS(C)(=O)=O)nn34)cc12` [II-6, 3-{4-[(2R)-2-(Methoxymethyl)pyrrolidin-1-yl]-1-benzofuran-2-yl}-6-[3-(methyl-sulfonyl)propoxy]imidazo[1,2-b]pyridazine], for which the values for the pIC50 against MKNK1 [1] (Table 2b) and against MKNK1 [2] (Table 1b) were 7.85 and 8.15, respectively.
